Key:
AT1R = target: T1, AT1R (Rattus norvegicus, UniProt P25095); assay: Whole cell competition binding with [125I]-Ang II, AT1R-transfected HEK-293 cells; conditions: relative binding, displacement of 125I-Ang II in AT1R-transfected HEK-293 cells; 100 nM (Table 6)
T1 construct: HA; expressed in transfected cells
T1 sequence (P25095 1-359): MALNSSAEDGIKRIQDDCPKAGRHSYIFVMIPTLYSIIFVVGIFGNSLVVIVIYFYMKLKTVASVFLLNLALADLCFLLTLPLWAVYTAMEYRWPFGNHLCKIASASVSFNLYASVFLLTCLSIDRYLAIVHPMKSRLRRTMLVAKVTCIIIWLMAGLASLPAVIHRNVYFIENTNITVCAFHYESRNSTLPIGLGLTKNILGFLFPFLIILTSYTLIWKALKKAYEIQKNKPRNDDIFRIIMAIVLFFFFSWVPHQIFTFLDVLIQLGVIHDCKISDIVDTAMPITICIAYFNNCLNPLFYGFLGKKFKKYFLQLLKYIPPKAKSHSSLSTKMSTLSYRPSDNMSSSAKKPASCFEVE
Method: The generation of plasmids expressing HA-tagged versions of the AT1R and AT2R have been previously described [Qian et al. (1999)], [D’Amore et al. (2005)]. HEK-293 cells in 12 well-plates were transfected with either AT1R or AT2R plasmids (0.6 μg/well) using lipofectAMINE (4⋅8 μl/well), as previously described [Thomas et al. (1998)] and stably expressing clones obtained by selection with G418 (1 mg/ml) and limiting dilution.

AT2R = assay: Whole cell competition binding with [125I]-Ang II, AT2R-transfected HEK-293 cells; conditions: relative binding, displacement of 125I-Ang II in AT2R-transfected HEK-293 cells; 100 nM (Table 6)
Method: The generation of plasmids expressing HA-tagged versions of the AT1R and AT2R have been previously described [Qian et al. (1999)], [D’Amore et al. (2005)]. HEK-293 cells in 12 well-plates were transfected with either AT1R or AT2R plasmids (0.6 μg/well) using lipofectAMINE (4⋅8 μl/well), as previously described [Thomas et al. (1998)] and stably expressing clones obtained by selection with G418 (1 mg/ml) and limiting dilution. HEK clones expressing either AT1R or AT2R were plated in 12 well-plates for whole cell competition binding assays using the non-selective Ang II ligand, [^125I]-Ang II and selected concentrations of Ang II, PD123319 (an AT2-selective ligand) and the various β-substituted Ang II peptides. Non-linear regression of the data was achieved using GraphPad Prism (GraphPad Software Inc., San Diego, CA, USA) to determine relative displacement of chimeric Ang II analogs as compared to ^125I-Ang II in either AT1R- or AT2R- transfected HEK-293 cells.

ACE2 [1] = target: T2, ACE2 (Homo sapiens, UniProt Q9BYF1); assay: ACE2 quenched fluorescence substrate (QFS) inhibition assay; type: biochemical; conditions: QFS assay, pH 6.5, 37 °C, 1 h, value ± spread; for Inhibition (%) of ACE2, AngII chimeras, 1 μM: peptide 1 μM; for Inhibition (%) of ACE2, AngII chimeras, 10 μM: peptide 10 μM; for Inhibition (%) of ACE2, AngII chimeras, 100 μM: peptide 100 μM
T2 sequence (Q9BYF1 18-805, species assumed): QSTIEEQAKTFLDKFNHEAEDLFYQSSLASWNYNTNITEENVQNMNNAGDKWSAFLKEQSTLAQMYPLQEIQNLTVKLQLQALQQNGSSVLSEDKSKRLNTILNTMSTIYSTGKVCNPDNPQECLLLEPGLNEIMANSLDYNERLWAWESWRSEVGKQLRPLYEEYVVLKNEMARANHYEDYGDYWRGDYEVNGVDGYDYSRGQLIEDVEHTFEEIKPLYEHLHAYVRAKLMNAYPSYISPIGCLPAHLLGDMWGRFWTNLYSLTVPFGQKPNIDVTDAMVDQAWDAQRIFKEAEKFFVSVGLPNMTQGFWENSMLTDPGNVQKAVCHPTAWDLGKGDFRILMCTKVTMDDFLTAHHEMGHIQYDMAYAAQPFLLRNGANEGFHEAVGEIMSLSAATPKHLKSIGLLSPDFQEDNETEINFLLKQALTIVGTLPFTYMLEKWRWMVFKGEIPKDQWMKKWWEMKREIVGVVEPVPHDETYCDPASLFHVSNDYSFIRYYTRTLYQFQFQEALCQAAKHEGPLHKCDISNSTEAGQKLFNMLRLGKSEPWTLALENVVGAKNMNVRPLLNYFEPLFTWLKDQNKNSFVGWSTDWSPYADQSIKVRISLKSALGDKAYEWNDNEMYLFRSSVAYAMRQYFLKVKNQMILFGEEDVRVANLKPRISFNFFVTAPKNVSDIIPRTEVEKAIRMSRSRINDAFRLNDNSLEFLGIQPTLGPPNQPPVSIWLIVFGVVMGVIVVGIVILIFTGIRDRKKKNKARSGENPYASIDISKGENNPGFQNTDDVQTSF

ACE2 [2] = target: T2, ACE2; assay: LC–MS ACE2 proteolytic cleavage assay; type: in vitro ADME; conditions: typically 4-5 h (5 h), LC–MS; for Cleavage (%) by ACE2, 10 μM: peptide 10 μM incubated with ACE2 at 37 °C; for Cleavage (%) by ACE2, 100 μM: peptide 100 μM incubated with ACE2 at 37 °C
Method: The first hour of the incubation was performed in the Fluorostar Optima plate reader in order to confirm previously observed level of inhibition, then for the remaining time the samples were transferred to small microfuge tubes and incubated in a water bath. The extent of ACE2 cleavage was assessed by LC–MS on an Agilent capillary HP1100, MSD VL3000 Ion-Trap system.

AT1R binding (%) (AT1R) | Inhibition (%) of ACE2, AngII chimeras, 1 μM (ACE2 [1]) | Inhibition (%) of ACE2, AngII chimeras, 10 μM (ACE2 [1]) | Inhibition (%) of ACE2, AngII chimeras, 100 μM (ACE2 [1]) | Cleavage (%) by ACE2, 10 μM (ACE2 [2]) | Cleavage (%) by ACE2, 100 μM (ACE2 [2]; listed as DRVY VYβPF) | Cleavage (%) by ACE2, 100 μM (ACE2 [2]; listed as DRVYI YβPF) | Substance | AT2R binding (%) (AT2R) | Cleavage (%) by ACE2, 100 μM (ACE2 [2])
0% | 0 ± 11.4% | 42 ± 4.4% | 90 ± 0.6% | 0 ± 0% | 0 ± 0% | – | DRVYVYβPF | 75% | complete resistance to proteolytic cleavage
0% | 2 ± 3.6% | 15 ± 9% | 59 ± 2.1% | – | – | – | DRVYVYPβF | 25% | complete resistance to proteolytic cleavage
0% | –4 ± 9.8% | 10 ± 5.8% | 72 ± 1.5% | 0 ± 0% | – | 0 ± 0% | DRVYIYβPF | 80% | complete resistance to proteolytic cleavage

Source: article PMC4311625, “Structural determinants for binding to angiotensin converting enzyme 2 (ACE2) and angiotensin receptors 1 and 2” (Frontiers in Pharmacology, 2015)
